Values of other authors in patent publication US20140004043A1, “CRYPTOPHANE DERIVATIVES AND METHODS OF USE THEREOF” (Georgetown Univeristy, priority 2010, published 2014).
Read-outs that look alike come from different tables or passages of the source.

Conditions: cited from earlier work

c1cc2c3cc1OCOc1ccc4c(c1)Cc1ccc5cc1Cc1ccc(cc1C4)OCOc1ccc(c(c1)Cc1ccc(cc1C2)OCO5)C3 (racemic) [Cryptophane 1, (±)-cryptophane-1,1,1]
binding constant with xenon Ka (293 K in 1,1,2,2-tetrachloroethane-d2 (TCE-d2)): ~10,000 M^−1
Ka, association constant for xenon binding (TCE-d2, 293 K): 10000 M⁻¹

COc1cc2c3cc1OCCOc1cc4c(cc1OC)Cc1cc5c(OC)cc1Cc1cc(c(OC)cc1C4)OCCOc1cc(c(cc1OC)C3)Cc1cc(OC)c(cc1C2)OCCO5 [A (or 222), (±)-cryptophane-A]
Ka, association constant for xenon binding (TCE-d2, 278 K (footnote d)): 3300^d
binding constant Ka of the xenon complex (organic solution, 278K): 3900 M⁻¹
